# Results: patent publication US20090291977A1, “Chromane Derivatives Useful As Acid Pump Antagonists” (priority 2004, published 2009)
# Target: T1, Porcine gastric H+/K+-ATPase (Sus scrofa, UniProt P19156)
# T1 construct: The gastric vesicles were collected from interface on 0.25 M sucrose layer containing 7% Ficoll; from tissue; host or cells: mucous membrane of fresh porcine stomachs (gastric vesicles)
# Assay: Ion-leaky porcine gastric H+/K+-ATPase inhibition
# Assay type: biochemical
# Settings: ion-leaky vesicles, 5 mM KCl, pH 6.4, 37° C., 30 minutes
# Procedure: The porcine gastric vesicles for Porcine gastric H^+/K^+-ATPase inhibition assays were prepared from mucous membrane in fresh porcine stomachs by homogenization with a tight-fitted polytetrafluoroethylene (Teflone®) homogenizer in 0.25 M sucrose at 4° C. The crude pellet was removed with centrifugation at 20,000 g for 30 min. Then supernatant was centrifuged at 100,000 g for 30 min. The resulting pellet was re-suspended in 0.25 M sucrose, and then subjected to density gradient centrifugation at 132,000 g for 90 min. The gastric vesicles were collected from interface on 0.25 M sucrose layer containing 7% Ficoll™ PM400(Amersham Biosciences). This procedure was performed in a cold room.
# Ion-leaky porcine gastric H^+/K^+-ATPase-inhibition was measured according to the modified method described in Biochemical Pharmacology, 1988, 37, 2231-2236.
# The isolated vesicles were lyophilized, and then kept in deep-freezer until use. For enzyme assay, lyophilized vesicles were reconstituted with 3 mM MgSO4 containing 40 mM Bis-tris (pH 6.4 at 37° C.).
# Enzyme reaction was performed incubating 5 mM KCl, 3 mM Na2ATP, 3 mM MgSO4 and 1.0 μg of reconstituted vesicles for 30 minutes at 37° C. in a final 60 μl of reaction mixture (40 mM Bis-tris, pH 6.4) with or without the test compound. Enzyme reaction was stopped by adding 10% sodium dodecyl sulphate (SDS). Released inorganic phosphate from ATP was detected by incubation with mixture of 1 part of 35 mM ammonium molybdate tetrahydrate in 15 mM Zinc acetate hydrate and 4 parts of 10% ascorbic acid (pH 5.0), resulting in phosphomolybdate, which has optical density at 750 nm.
# T1 sequence (P19156 2-1034 limits assumed): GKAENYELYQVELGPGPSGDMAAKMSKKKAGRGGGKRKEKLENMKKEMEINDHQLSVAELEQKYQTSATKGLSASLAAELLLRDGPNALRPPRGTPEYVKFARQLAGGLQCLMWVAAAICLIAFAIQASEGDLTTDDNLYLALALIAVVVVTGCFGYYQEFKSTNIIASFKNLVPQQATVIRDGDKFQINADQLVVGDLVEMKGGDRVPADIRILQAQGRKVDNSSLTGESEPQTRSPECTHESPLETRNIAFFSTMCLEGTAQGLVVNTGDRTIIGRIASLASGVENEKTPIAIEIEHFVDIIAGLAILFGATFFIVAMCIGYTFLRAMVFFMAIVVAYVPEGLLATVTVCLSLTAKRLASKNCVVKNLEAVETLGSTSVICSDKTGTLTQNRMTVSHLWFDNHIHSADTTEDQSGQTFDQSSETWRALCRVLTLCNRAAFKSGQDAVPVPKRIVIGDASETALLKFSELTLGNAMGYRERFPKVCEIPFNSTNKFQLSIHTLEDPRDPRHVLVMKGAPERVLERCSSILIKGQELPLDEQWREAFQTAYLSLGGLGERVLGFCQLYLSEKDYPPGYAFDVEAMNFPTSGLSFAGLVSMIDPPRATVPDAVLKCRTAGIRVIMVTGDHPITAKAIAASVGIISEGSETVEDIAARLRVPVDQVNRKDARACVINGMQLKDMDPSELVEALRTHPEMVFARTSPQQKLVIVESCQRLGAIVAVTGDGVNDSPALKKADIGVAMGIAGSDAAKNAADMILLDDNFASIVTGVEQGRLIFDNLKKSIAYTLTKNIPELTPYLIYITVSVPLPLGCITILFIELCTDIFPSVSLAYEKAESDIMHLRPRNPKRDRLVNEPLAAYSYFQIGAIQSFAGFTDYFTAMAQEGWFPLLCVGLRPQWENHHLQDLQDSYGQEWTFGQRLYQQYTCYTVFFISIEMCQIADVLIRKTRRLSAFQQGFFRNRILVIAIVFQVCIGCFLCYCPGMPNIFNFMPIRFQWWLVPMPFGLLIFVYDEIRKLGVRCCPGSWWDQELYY
# T1 sequence (P18434 whole entry partner): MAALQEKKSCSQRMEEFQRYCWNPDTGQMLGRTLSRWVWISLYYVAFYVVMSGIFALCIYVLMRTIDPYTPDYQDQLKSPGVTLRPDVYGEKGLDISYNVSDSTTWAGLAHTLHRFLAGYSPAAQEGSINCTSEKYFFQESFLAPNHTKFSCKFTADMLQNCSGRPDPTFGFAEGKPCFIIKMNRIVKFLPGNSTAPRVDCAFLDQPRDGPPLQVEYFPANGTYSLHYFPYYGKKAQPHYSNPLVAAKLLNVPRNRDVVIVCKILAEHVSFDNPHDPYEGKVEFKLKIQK
row,IC50 [nM],Molecule
1,100,"Cc1ccc2c(c1)OCCC2Nc1cc(C(=O)N(C)CCO)cn2c(C)c(C)nc12 (single isomer, unassigned) [Example 16-2, N-(2-Hydroxyethyl)-N,2,3-trimethyl-8-[(7-methyl-3,4-dihydro-2H-chromen-4-yl)amino]imidazo[1,2-a]pyridine-6-carboxamide]"
2,300,"Cc1nc2c(NC3CCOc4cccc(Cl)c43)cc(C(=O)N(C)C)cn2c1C (single isomer, unassigned) [Example 18-2, 8-[(5-Chloro-3,4-dihydro-2H-chromen-4-yl)amino]-N,N,2,3-tetramethylimidazo[1,2-a]pyridine-6-carboxamide]"
3,20.8,"Cc1nc2c(NC3CCOc4ccc(F)cc43)cc(C(=O)N(C)C)cn2c1C (racemic) [Example 12-1, 8-[(6-Fluoro-3,4-dihydro-2H-chromen-4-yl)amino]-N,N,2,3-tetramethylimidazo[1,2-a]pyridine-6-carboxamide]"
4,40.9,"Cc1nc2c(NC3CCOc4c(F)cccc43)cc(C(=O)N(C)CCO)cn2c1C (racemic) [Example 15-1, 8-[(8-Fluoro-3,4-dihydro-2H-chromen-4-yl)amino]-N-(2-hydroxyethyl)-N,2,3-trimethylimidazol[1,2-a]pyridine-6-carboxamide]"
5,180,"Cc1ccc2c(c1)OCCC2Nc1cc(C(=O)N(C)CCO)cn2c(C)c(C)nc12 (single isomer, unassigned) [Example 16-3, N-(2-Hydroxyethyl)-N,2,3-trimethyl-8-[(7-methyl-3,4-dihydro-2H-chromen-4-yl)amino]imidazo[1,2-a]pyridine-6-carboxamide]"
6,350,"Cc1nc2c(NC3CCOc4cccc(Cl)c43)cc(C(=O)N(C)C)cn2c1C (racemic) [Example 18-1, 8-[(5-Chloro-3,4-dihydro-2H-chromen-4-yl)amino]-N,N,2,3-tetramethylimidazo[1,2-a]pyridine-6-carboxamide]"
7,273,"Cc1nc2c(NC3COCc4ccccc43)cc(C(=O)N(C)CCO)cn2c1C (single isomer, unassigned; (-)) [Example 4-2, (−)-8-(3,4-Dihydro-1H-isochromen-4-ylamino)-N-(2-hydroxyethyl)-N,2,3-trimethylimidazo[1,2-a]pyridine-6-carboxamide]"
8,40.9,"Cc1nc2c(NC3CCOc4cc(F)ccc43)cc(C(=O)N(C)C)cn2c1C (single isomer, unassigned) [Example 6-2, 8-[(7-Fluoro-3,4,dihydro-2H-chromen-4-yl)amino]-N,N,2,3-tetramethylimidazo[1,2-a]pyridine-6-carboxamide]"
9,55.9,"Cc1nc2c(NC3CCOc4cc(F)ccc43)cc(C(=O)N(C)CCO)cn2c1C (single isomer, unassigned) [Example 7-3, 8-[(7-Fluoro-3,4-dihydro-2H-chromen-4-yl)amino]-N-(2-hydroxyethyl)-N,2,3-trimethylimidazol[1,2-a]pyridlne-6-carboxamide]"
10,294,"Cc1nc2c(NC3CCOc4c(F)cccc43)cc(C(=O)N(C)C)cn2c1C (racemic) [Example 14-1, 8-[(8-Fluoro-3,4-dihydro-2H-chromen-4-yl)amino]-N,N,2,3-tetramethylimidazo[1,2-a]pyridine-6-carboxamide]"

# The next lines start with the molecule.
row,Molecule,IC50 [nM]
1,"Cc1nc2c(NC3CCOc4c(F)cccc43)cc(C(=O)N(C)C)cn2c1C (single isomer, unassigned) [Example 14-2, 8-[(8-Fluoro-3,4-dihydro-2H-chromen-4-yl)amino]-N,N,2,3-tetramethylimidazo[1,2-a]pyridine-6-carboxamide]",120
2,"Cc1nc2c(NC3CCOc4cccc(F)c43)cc(C(=O)N(C)CCO)cn2c1C (racemic) [Example 11-1, 8-[(5-Fluoro-3,4-dihydro-2H-chromen-4-yl)amino]-N-(2-hydroxyethyl)-N,2,3-trimethylimidazo[1,2-a]pyridine-6-carboxamide]",48.6
3,"Cc1nc2c(NC3CCOc4ccc(F)cc43)cc(C(=O)N(C)CCO)cn2c1C (racemic) [Example 13-1, 8-[(6-Fluoro-3,4-dihydro-2H-chromen-4-yl)amino]-N-(2-hydroxyethyl)-N,2,3-trimethylimidazol[1,2-a]pyridine-6-carboxamide]",250
4,"Cc1nc2c(NC3CCOc4c(F)cccc43)cc(C(=O)N(C)CCO)cn2c1C (single isomer, unassigned) [Example 15-3, 8-[(8-Fluoro-3,4-dihydro-2H-chromen-4-yl)amino]-N-(2-hydroxyethyl)-N,2,3-trimethylimidazol[1,2-a]pyridine-6-carboxamide]",370
5,"Cc1nc2c(NC3CCOc4cc(F)cc(F)c43)cc(C(=O)N(C)CCO)cn2c1C (single isomer, unassigned) [Example 9-3, 8-[(5,7-Difluoro-3,4-dihydro-2H-chromen-4-yl)amino]-N-(2-hydroxyethyl)-N,2,3-trimethylimidazo[1,2-a]pyridine-6-carboxamide]",53.2
6,"Cc1nc2c(NC3CCOc4cc(F)ccc43)cc(C(=O)N(C)C)cn2c1C (single isomer, unassigned) [Example 6-3, 8-[(7-Fluoro-3,4,dihydro-2H-chromen-4-yl)amino]-N,N,2,3-tetramethylimidazo[1,2-a]pyridine-6-carboxamide]",15.7
7,"Cc1nc2c(NC3CCOc4cccc(Cl)c43)cc(C(=O)N(C)CCO)cn2c1C (single isomer, unassigned) [Example 19-3, 8-[(5-Chloro-3,4-dihydro-2H-chromen-4-yl)amino]-N-(2-hydroxyethyl)-N,2,3-trimethylimidazo[1,2-a]pyridine-6-carboxamide]",500
8,"Cc1nc2c(NC3CCOc4ccc(F)cc43)cc(C(=O)N(C)CCO)cn2c1C (single isomer, unassigned) [Example 13-3, 8-[(6-Fluoro-3,4-dihydro-2H-chromen-4-yl)amino]-N-(2-hydroxyethyl)-N,2,3-trimethylimidazol[1,2-a]pyridine-6-carboxamide]",170
9,"Cc1nc2c(NC3CCOc4cc(F)ccc43)cc(C(=O)N(C)CCO)cn2c1C (racemic) [Example 7-1, 8-[(7-Fluoro-3,4-dihydro-2H-chromen-4-yl)amino]-N-(2-hydroxyethyl)-N,2,3-trimethylimidazol[1,2-a]pyridlne-6-carboxamide]",26.6
10,"Cc1nc2c(NC3CCOc4ccc(F)cc43)cc(C(=O)N(C)C)cn2c1C (single isomer, unassigned) [Example 12-2, 8-[(6-Fluoro-3,4-dihydro-2H-chromen-4-yl)amino]-N,N,2,3-tetramethylimidazo[1,2-a]pyridine-6-carboxamide]",197
11,"Cc1nc2c(NC3CCOc4ccccc43)cc(C(=O)N(C)C)cn2c1C (single isomer, unassigned; (+)) [Example 1-3, (+)-8-(3,4-Dihydro-2H-chromen-4-ylamino)-N,N,2,3-tetramethylimidazo[1,2-a]pyridine-6-carboxamide]",27.8
12,"8-3,4-Dihydro-1H-isochromen-4-ylamino)-N,N,2,3-tetramethylimidazo[1,2-a]pyridine-6-carboxamide [Example 3-1]",103
13,"Cc1nc2c(NC3CCOc4cccc(Cl)c43)cc(C(=O)N(C)CCO)cn2c1C (single isomer, unassigned) [Example 19-2, 8-[(5-Chloro-3,4-dihydro-2H-chromen-4-yl)amino]-N-(2-hydroxyethyl)-N,2,3-trimethylimidazo[1,2-a]pyridine-6-carboxamide]",600
